Data from patent US6184246A, “Inhibition of cytokine production by polymethoxylated flavones” (priority 1999, dated 2001).
Entries after “also recorded” stand apart in the source; their conditions may differ. Where two headings read alike, the source gives them in different places.

Tests used:
human monocytes = assay: Cytotoxicity by LDH content of monocyte lysates
Procedure: (§1) To measure the impact of the flavones on cytokine production, PBMCs were resuspended to 4×10^6 /mL in complete medium, i.e., Dulbecco's Modified Eagle Medium containing 30% FCS, 2 mM glutamine, 100 U/mL Penicillin-G, and 100 μg/mL streptomycin. […] Nonadherent cells (lymphocytes) were separated from the plastic adherent cells (monocytes) by washing the wells twice with 200 μL of medium. The monocytes were cultured an additional 30 min in 100 μL of complete medium containing graded concentrations of the compound of interest and the cultures were then adjusted to contain […] LPS to stimulate cytokine production. Culture supernatants were harvested 14 h later, and cells were lysed by addition of 50 μL of Dulbecco's phosphate buffered saline containing 1% NP40. Culture supernatants were evaluated for TNFα, IL-1β, IL-6, IL-8, IL-10, and MIP-1α content using specific enzyme-linked immunosorbent assays (ELISA) purchased from R&D Systems. IL-1β was measured in cell lysates by ELISA. Lactate dehydrogenase (LDH) content of cell lysates was measured to determine compound effects on cell viability: To 50 μL of lysate were added 200 μL of 50 mM sodium pyrophosphate buffer (pH 8.9) containing 50 mM lactic acid and 4 mg/mL β-nicotinamide adenine dinucleotide (Sigma); rates of reduction of nicotinamide adenine dinucleotide were measured at room temperature at 340 nm.

TNFα [1] = assay: TNFα production by LPS-stimulated human monocytes (ELISA); format: cell-based; conditions: for inhibition of TNFα production (in words): LPS-stimulated human monocytes; for IC50: read-out: IC50 for inhibition of TNFα production
Procedure: Isolation of human peripheral blood monocytes: Peripheral blood mononuclear cells (PBMCs) were isolated from residual source leukocytes (Bonfils Blood Center, CO) by density gradient centrifugation using Ficoll-Paque Plus (Pharmacia, Sweden).
as §1

intracellular cAMP = assay: Cellular cAMP in human monocytes (EIA); format: cell-based; conditions: 30 min; for intracellular cAMP level: media alone 2.7±0.9
Procedure: To test flavones for the ability to cause an increase in cellular cAMP, monocytes were purified from PBMC by centrifugal elutriation. Monocytes were resuspended to 5×10^6 /mL in complete medium and 2 mL cell suspension were dispensed into FALCON 17×100 mm polypropylene culture tubes (Becton Dickinson). The cells were precultured 2 h at 37° C. and 5% CO2, and then cultured an additional 30 min following adjusting culture media to contain 100 μM of the flavone of interest or 200 μM IBMX (3-isobutyl-1-methylxanthine). Cells were then collected by centrifugation, lysed in 300 μL of ice cold aqueous solution containing 10 mM HEPES (pH 7.6) and 1% NP40. The lysates were applied to 100 mg columns of Amprep SAX resin (Amersham). The columns were then rinsed with 1 mL of methanol and the cAMP was eluted in 600 μL of methanol containing 0.01 M HCl. The eluates were chilled on dry ice and dried under vacuum. The Amersham Biotrak cAMP EIA assay was used to measure cAMP content of residues resuspended in 400 μL of assay buffer.

[2] = system: type-IV phosphodiesterase semi-purified from U937 cells; assay: Phosphodiesterase cAMP SPA enzyme assay; format: biochemical; conditions: hydrolysis of cAMP; read-out: concentration inhibiting phosphodiesterase activity 50%
Procedure: PDE semipurified from U937 monocytic cells was evaluated for the ability to catalyze the hydrolysis of cAMP in the presence of graded concentrations of flavone, myricetin, and HMF as described below. The rates are plotted as percent of control-reactions, where no flavonoids were present. Testing flavones as phosphodiesterase inhibitors and inducers of cellular cyclic adenosine monophosphate (cAMP): The Phosphodiesterase cAMP SPA Enzyme Assay (Amersham, Arlington Heights, Ill.) was used to test the ability of flavones to inhibit cAMP hydrolysis catalyzed by phosphodiesterase. The phosphodiesterase used in this study was semi-purified from U937 cells, and was determined to be mostly the type-IV isoform based on sensitivity to selected isoform inhibitors (Trophy, T. J., J. Pharmacol. Experimental Therapeutics, 1195-1205 (1992)).

IL-1β = IL-1β production by LPS-stimulated human monocytes (ELISA, cell lysates); format: cell-based; conditions: cytokine suppression profile, HMF compared against IBMX (Table 2)
Procedure: (§2) Adherent purified human monocytes were cultured in the presence of graded concentrations of heptamethoxyflavone for 30 min. The monocyte cultures were then adjusted to contain 20 ng/mL LPS. After 14 h of culture, the cytokines TNFα, IL-6, IL-8, MIP-1α, and IL-10 were assayed in the culture supernatants and IL-1β was assayed in the cell lysates using specific ELISA assays as described below. Values expressed as the percent of cytokine produced in flavone-free cultures are the means and standard errors determined using monocytes isolated from three independent donors.
(§3) Isolation of human peripheral blood monocytes: Peripheral blood mononuclear cells (PBMCs) were isolated from residual source leukocytes (Bonfils Blood Center, CO) by density gradient centrifugation using Ficoll-Paque Plus (Pharmacia, Sweden). Monocytes were purified further by plastic adherence (see below) or by centrifugal elutriation as described previously (Manthey, C. L., et al., J. Leuk Biol., 64: 409-416 (1998)).
(§4) IL-1β was measured in cell lysates by ELISA.

IL-6 = IL-6 production by LPS-stimulated human monocytes (ELISA); format: cell-based; conditions: cytokine suppression profile, HMF compared against IBMX (Table 2)
Procedure: as §2, §3, §4

IL-8 = IL-8 production by LPS-stimulated human monocytes (ELISA); format: cell-based; conditions: cytokine suppression profile, HMF compared against IBMX (Table 2)
Procedure: as §2, §3, §4

IL-10 = IL-10 production by LPS-stimulated human monocytes (ELISA); format: cell-based; conditions: LPS-stimulated human monocytes
Procedure: as §2, §3, §4

TNFα [3] = conditions: mice, cited from earlier work
[4] = human monocytes, LDH content of cell lysates
[5] = human monocytes, 30 min preculture with compound, LPS, 14 h, 30% FCS
[6] = Monocyte, human monocytes, 30 min preculture with compound, LPS, 14 h, 30% FCS

| Molecule | cytotoxicity towards cultured human monocytes (depletion of cellular LDH activity) (human monocytes; [4]) | inhibition of TNFα production (in words) (TNFα [1]) | cytotoxicity towards cultured human monocytes (depletion of cellular LDH activity) (human monocytes) | further results |
| --- | --- | --- | --- | --- |
| O=c1cc(-c2ccccc2)oc2cc(O)ccc12 [7-hydroxyflavone] | lacked activity and any associated cytotoxicity | lacked activity | – | – |
| Oc1cc(O)c2c(c1)OC(c1ccc(O)c(O)c1)C(O)C2 (centres unmarked) [catechin] | lacked activity and any associated cytotoxicity | lacked activity | – | – |
| Oc1cc(O)c2c(c1)O[C@H](c1ccc(O)c(O)c1)[C@H](O)C2 [epicatechin] | – | lacked activity | lacked activity and any associated cytotoxicity | – |
| CC1OC(OCC2OC(Oc3c(-c4ccc(O)cc4)oc4cc(OC5OC(C)C(O)C(O)C5O)cc(O)c4c3=O)C(O)C(O)C2O)C(O)C(O)C1O (centres unmarked) [robinin] | lacked activity and any associated cytotoxicity | lacked activity | – | – |
| O=c1c(O)c(-c2ccc(O)c(O)c2)oc2c(O)c(O)cc(O)c12 [gossypetin] | lacked activity and any associated cytotoxicity | lacked activity | – | – |
| COc1ccc([C@@H]2CC(=O)c3c(O)cc(O)cc3O2)cc1O [hesperetin] | – | lacked activity | lacked activity and any associated cytotoxicity | – |
| COc1ccc(-c2cc(=O)c3c(OC)c(OC)c(OC)cc3o2)cc1 [tetra-O-methylscutellarein] | exception | – | – | – |
| margaretin | – | – | no cytotoxicity | IC50 (TNFα [1]; [5]): > 200 µM |
| O=c1cc(-c2ccccc2)oc2cc(O)c(O)c(O)c12 [baicalein] | – | lacked activity | lacked activity and any associated cytotoxicity | – |
| O=c1cc(-c2ccccc2)oc2ccccc12 [flavone] | – | much less active | – | increase of monocyte cAMP levels over media alone (in words) (intracellular cAMP; 100 μM): much less; intracellular cAMP level (intracellular cAMP; 100 μM): 3.6±1.1 pmol/10^7 cells; IC50 [2]: 11 µM |
| CC(C)Cn1c(=O)n(C)c(=O)c2[nH]cnc21 [IBMX, 3-isobutyl-1-methylxanthine] | – | – | – | increase of monocyte cAMP levels over media alone (in words) (intracellular cAMP; 200 μM): at least a doubling; intracellular cAMP level (intracellular cAMP; 200 μM): 8.3±1.9 pmol/10^7 cells; suppression of IL-1β production (IL-1β): neither suppressed; suppression of IL-6 production (IL-6): neither suppressed; suppression of IL-8 production (IL-8): neither suppressed; inhibition of IL-10 production (in words) (IL-10): did not inhibit |
| O=c1c(O)c(-c2ccc(O)c(O)c2)oc2cc(O)ccc12 [fisetin] | lacked activity and any associated cytotoxicity | lacked activity | – | – |
| isomargaretin | – | – | no cytotoxicity | IC50 (TNFα [1]; [5]): > 200 µM |
| O=C1C[C@@H](c2ccc(O)c(O)c2)Oc2cc(O)cc(O)c21 [eriodictyol] | – | lacked activity | lacked activity and any associated cytotoxicity | – |
| O=c1cc(-c2ccccc2)oc2cc(O)cc(O)c12 [chrysin] | lacked activity and any associated cytotoxicity | lacked activity | – | – |
| O=c1c(O)c(-c2ccc(O)cc2)oc2cc(O)ccc12 [3,4,7-trihydroxyflavone] | – | lacked activity | lacked activity and any associated cytotoxicity | – |
| O=c1cc(-c2ccc(O)cc2)oc2cc(O)c([C@@H]3O[C@H](CO)[C@@H](O)[C@H](O)[C@H]3O)c(O)c12 [isovitexin] | – | – | no cytotoxicity | IC50 (TNFα [1]; [6]): > 200 µM |
| O=c1cc(-c2ccc(O)cc2)oc2ccc(O)c(O)c12 [4,5,6-trihydroxyflavone] | – | lacked activity | lacked activity and any associated cytotoxicity | – |
| O=c1c(O)c(-c2ccccc2)oc2cc(O)cc(O)c12 [galagin] | lacked activity and any associated cytotoxicity | lacked activity | – | – |
| COc1ccc([C@@H]2CC(=O)c3c(O)cc(O[C@@H]4O[C@H](CO[C@@H]5O[C@@H](C)[C@H](O)[C@@H](O)[C@H]5O)[C@@H](O)[C@H](O)[C@H]4O)cc3O2)cc1O [hesperidin] | – | – | no cytotoxicity | IC50 (TNFα [1]; Homo sapiens, Monocyte): > 200 µM |
| COc1ccc(-c2cc(=O)c3c(O)cc(O[C@@H]4O[C@H](CO[C@@H]5O[C@@H](C)[C@H](O)[C@@H](O)[C@H]5O)[C@@H](O)[C@H](O)[C@H]4O)cc3o2)cc1O [diosmin] | no cytotoxicity | – | – | IC50 (TNFα [1]; [6]): > 200 µM |
| O=C1CC(c2ccccc2)Oc2ccccc21 (centres unmarked) [flavanone] | lacked activity and any associated cytotoxicity | lacked activity | – | – |
| O=c1c(O)c(-c2cc(O)c(O)c(O)c2)oc2cc(O)cc(O)c12 [myricetin] | lacked activity and any associated cytotoxicity | lacked activity; also recorded: much less active | – | increase of monocyte cAMP levels over media alone (in words) (intracellular cAMP; 100 μM): much less; intracellular cAMP level (intracellular cAMP; 100 μM): 3.7±1.0 pmol/10^7 cells; IC50 [2]: 16 µM |
| O=c1c(O)c(-c2ccccc2)oc2ccccc12 [3-hydroxyflavone] | – | lacked activity | lacked activity and any associated cytotoxicity | – |
| C[C@@H]1O[C@@H](OC[C@H]2O[C@@H](Oc3cc(O)c4c(c3)O[C@H](c3ccc(O)cc3)CC4=O)[C@H](O)[C@@H](O)[C@@H]2O)[C@H](O)[C@H](O)[C@H]1O [narirutin] | – | – | no cytotoxicity | IC50 (TNFα [1]; [6]): > 200 µM |
| C[C@@H]1O[C@@H](O[C@H]2[C@H](Oc3cc(O)c4c(c3)O[C@H](c3ccc(O)cc3)CC4=O)O[C@H](CO)[C@@H](O)[C@@H]2O)[C@H](O)[C@H](O)[C@H]1O [naringin] | – | – | no cytotoxicity | IC50 (TNFα [1]; [6]): > 200 µM; liver injury (TNFα [3]; lipopolysaccharide-induced): suppress; lipopolysaccharide-induced TNFα release (TNFα [3]): suppress |
